Results: PMC12974487, “Inhibition of FicD-mediated AMPylation and deAMPylation by isoprenoid diphosphates” (Proceedings of the National Academy of Sciences of the …, 2026)
Changes are numbered by the printed parent chain.

Key:
[1] = molecular target: T1, FicD^R374H (Homo sapiens, UniProt Q9BVA6, R374H); assay: DSF with FicD^R374H variant; format: binding
T1 construct: Wild-type FicD (residues 105-458) and all mutants were expressed as N-terminal 6xHis-Sumo fusions; 6xHis-Sumo (N, cleaved yes); made in house; host or cells: Rosetta(DE3) E. coli
T1 sequence (Q9BVA6 105-458 R374H): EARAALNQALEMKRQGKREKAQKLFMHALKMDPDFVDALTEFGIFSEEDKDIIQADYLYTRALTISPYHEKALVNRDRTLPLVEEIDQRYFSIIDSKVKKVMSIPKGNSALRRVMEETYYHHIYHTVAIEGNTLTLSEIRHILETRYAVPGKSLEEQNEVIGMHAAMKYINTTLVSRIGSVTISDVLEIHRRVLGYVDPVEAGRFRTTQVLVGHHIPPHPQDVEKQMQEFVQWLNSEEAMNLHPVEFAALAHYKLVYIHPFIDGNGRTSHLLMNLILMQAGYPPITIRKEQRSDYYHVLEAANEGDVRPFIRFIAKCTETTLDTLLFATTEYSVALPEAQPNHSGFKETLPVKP

[2] = molecular target: T2, FicD^R374C (Homo sapiens, UniProt Q9BVA6, R374C); assay: DSF with FicD^R374C variant; format: binding
T2 construct: Wild-type FicD (residues 105-458) and all mutants were expressed as N-terminal 6xHis-Sumo fusions; 6xHis-Sumo (N, cleaved yes); made in house; host or cells: Rosetta(DE3) E. coli
T2 sequence (Q9BVA6 105-458 R374C): T1 sequence (Q9BVA6 105-458 R374H) with H270C

[3] = molecular target: T3, FicD^WT (Homo sapiens, UniProt Q9BVA6); assay: Total (intact) mass analysis of FicD^WT incubated with FPP; settings: 50uM FPP, 5mM MgCl2
T3 construct: soluble ER luminal domain (residues 105 to 458) of wild-type human FicD; 6xHis-Sumo (N, cleaved yes); made in house; host or cells: Rosetta(DE3) E. coli
T3 sequence (Q9BVA6 105-458): T1 sequence (Q9BVA6 105-458 R374H) with H270R
Excerpt: To reveal the mechanism of FicD inhibition by FPP, we leveraged the FicD^E234G mutant for structural studies. We soaked FPP into crystals of the FicD^E234G variant and solved the ligand-bound structure (Fig. 5 A and B). […] The diphosphate group of FPP closely overlapped with the ADP diphosphate when superimposed with a FicD^E234G-ADP structure (Fig. 5 A, Left), and the hydrophobic isoprenyl groups of FPP overlap with the nucleoside in the active site binding pocket (Fig. 5 A, Right). The FPP diphosphate binds directly to the side chains of N369, R371, with the sidechain of D367 coordinating the Mg^2+ (Fig. 5B). These interactions mimic those observed between ADP/ATP and FicD ([26]). […] As previously noted, only GPP and FPP could bind to and inhibit FicD, but analogs of the isoprenoid-pyrophosphate metabolites (geraniol, GMP, farnesol, FMP, DMAPP, and MVAPP) could not (Fig. 2 B–D). Together, these observations indicate both the pyrophosphate head and the long isoprenoid tail of GPP/FPP contribute to the binding with FicD. […]
Intact mass analysis of proteins was performed by the UT Southwestern Proteomics Core. Intact protein samples were analyzed by LC/MS, using a Sciex X500B QTOF mass spectrometer operating in positive ion mode, coupled to an Agilent 1290 Infinity II HPLC. […]

What does the source list for `CC(C)=CCC/C(C)=C/CC/C(C)=C/COP(=O)(O)OP(=O)(O)O` [FPP, farnesyl-pyrophosphate]?
binding to R374H variant by DSF (melting curve shift) ([1]; absence of Mg2+): caused shifts in the melting curves; binding to R374H variant by DSF (melting curve shift) ([1]; addition of Mg2+): enhanced the binding; binding to R374C variant by DSF (melting curve shift) ([2]; absence of Mg2+): caused shifts in the melting curves; binding to R374C variant by DSF (melting curve shift) ([2]; addition of Mg2+): enhanced the binding; mass shift associated with putative FPP automodification [3]: no mass shift
